EC50 data for 23 compounds are collected here from patent US9657033B2, “Tetrahydronaphthyridine and related bicyclic compounds for inhibition of RORγ activity and the treatment of disease” (Merck Sharp & Dohme Corp., priority 2012, dated 2017).

SMILES strings stand for the structures.

Experiment [1] addresses T1, RORγ-LBD (Homo sapiens (Human), UniProt P51449). Description: RORγ-Ligand Binding Domain (LBD) TR-FRET Assay Protocol II. The class given is biochemical. The conditions noted are these: purified RORγ-LBD, SRC1 peptide, overnight at 4° C. Here is the method:
Part II—Procedures for RORγ-Ligand Binding Domain TR-FRET Assay Protocol II
HIS-tagged RORγ-LBD protein was expressed in SF9 cells using a baculovirus expression system. The RORγ-LBD protein was purified by […]. Separately, SF9 cells not expressing recombinant protein were lysed in TBS buffer (25 mM Tris, pH 8.0, 150 mM NaCl) under sonication. The lysate was added to the purified RORγ-LBD in a volume equivalent of 0.75 μL lysate (from 30,000 SF9 cells) per 75 femtomol of RORγ-LBD protein. The resulting mixture was diluted in assay buffer (50 mM Tris pH 7.0, 50 mM KCl, 1 mM EDTA, 0.1 mM DTT, 0.01% BSA) to obtain RORγ-LBD protein at a final concentration of 3 nM.
Compounds to be tested were injected to the assay plate using Acoustic Droplet Ejection technology by Echo 550 liquid handler (Labcyte, Calif.).
A stock of biotinylated-LXXLL peptide from coactivator SRC1 (Biotin-[…]) was prepared in assay buffer and added to each well (100 nM final concentration). A solution of Europium tagged anti-HIS antibody (1.25 nM final concentration) and APC-conjugated streptavidin (8 nM final concentration) were also added to each well.
The final assay mixture was incubated overnight at 4° C., and the fluorescence signal was measured on an Envision plate reader: (Excitation filter=340 nm; APC emission=665 nm; Europium emission=615 nm; dichroic mirror=D400/D630; delay time=100 μs, integration time=200 μs). The EC50 value for test compounds was calculated from the quotient of the fluorescence signal at 665 nm divided by the fluorescence signal at 615 nm
On the technique in general: Time-resolved FRET reads energy transfer from a long-lived donor to a nearby acceptor.

Experiment [2] concerns the target T1, RORγ-LBD. Put plainly: RORγ-Ligand Binding Domain (LBD) TR-FRET Assay Protocol I. It is filed as biochemical. The conditions noted are these: RORγ-LBD lysate from SF9 cells, SRC1-2 peptide. Here is the method: Part I—Procedures for RORγ-Ligand Binding Domain TR-FRET Assay Protocol I
Recombinant,HIS-tagged RORγ-LBD was expressed in SF9 cells using a baculovirus expression system. Cells were lysed and the lysate was used as a source for RORγ-LBD for the assay. A 1:80 dilution of RORγ-LBD lysate in assay buffer (25 mM HEPES pH 7.0, 100 mM NaCl, 0.01% Tween, 0.1% BSA) was prepared and 5 μL was added to each well (RORγ-LBD final concentration ˜3 nM). Control wells received lysate from SF9 cells not expressing RORγ-LBD.
Compounds to be tested were diluted to 100× final test concentration in DMSO and further diluted to 4× final test concentration using assay buffer to provide the test compound mixture. An aliquot (5 μL) of the test compound mixture was added to each well.
A 4× stock of biotinylated-LXXLL peptide from SRC1-2 (Biotin-[…]) was prepared in assay buffer and a 5 μL aliquot added to each well (450 nM final concentration). A 4× solution of europium tagged anti-HIS antibody (2 nM final concentration) and APC conjugated streptavidin (60 nM final concentration) were prepared and a 5 μL aliquot added to each well.
The final assay mixture was incubated for 4 hours to overnight, and the fluorescence signal was measured on an Envision plate reader: (Excitation filter=340 nm; APC emission=665 nm; Europium emission=615 nm; dichroic mirror=D400/D630; delay time=100 μs, integration time=200 μs).
EC50 values for test compounds were calculated from the quotient of the fluorescence signal at 665 nm divided by the fluorescence signal at 615 nm using GraphPad Prism software

T1 sequence (P51449 269-508): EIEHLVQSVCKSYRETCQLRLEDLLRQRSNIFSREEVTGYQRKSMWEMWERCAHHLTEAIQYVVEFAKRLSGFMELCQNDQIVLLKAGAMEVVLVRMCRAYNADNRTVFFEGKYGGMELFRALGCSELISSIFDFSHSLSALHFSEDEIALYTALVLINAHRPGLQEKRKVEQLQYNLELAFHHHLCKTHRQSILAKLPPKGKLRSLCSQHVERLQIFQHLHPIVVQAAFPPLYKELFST

Regarding `O=C(Nc1cnc2cnn(S(=O)(=O)c3cccc(C(F)(F)F)c3)c2c1)c1c(F)cccc1Cl` [Compound 1, 2-chloro-6-fluoro-N-[1-(3-trifluoromethylbenzenesulfonyl)-1H-pyrazolo[4,3-b]pyridin-6-yl]benzamide], the EC50 at RORγ-LBD [1] stood at 0.025 µM; on RORγ-LBD [2], 1.88 µM.

For the compound `O=C(Nc1cc2c(cn1)cnn2S(=O)(=O)c1cccc(C(F)(F)F)c1)c1c(F)cccc1Cl` [Compound 10], the results for the EC50 on RORγ-LBD [1] and at RORγ-LBD [2] were 4.33 µM and 3.62 µM, respectively.

Consider `Cc1nn(C(F)F)cc1S(=O)(=O)n1ncc2cnc(NC(=O)c3c(F)cccc3Cl)cc21` [Compound 11], for which the EC50 at RORγ-LBD [1] was determined as 0.324 µM; on RORγ-LBD [2] it was 0.447 µM.

Turning to `CC1COc2ncc(NC(=O)c3c(F)cccc3Cl)cc2N1S(=O)(=O)c1ccc(F)cc1` (centres unmarked) [Compound 12, 2-chloro-6-fluoro-N-[1-(4-fluorobenzenesulfonyl)-2-methyl-2,3-dihydro-1H-pyrido[2,3-b][1,4]oxazin-7-yl]benzamide], the EC50 at RORγ-LBD [1] stood at 0.066 µM; at RORγ-LBD [2], 0.25 µM.

In the case of `O=C(Nc1cnc2c(c1)N(S(=O)(=O)c1ccc(F)cc1)CCO2)c1c(F)cccc1Cl` [Compound 13, 2-chloro-6-fluoro-N-[1-(4-fluorobenzenesulfonyl)-2,3-dihydro-1H-pyrido[2,3-b][1,4]oxazin-7-yl]benzamide], the EC50 at RORγ-LBD [2] came to 0.174 µM.

For `Cc1cccc(S(=O)(=O)N2C[C@H](C)Oc3ncc(NC(=O)c4c(F)cccc4Cl)cc32)c1` [Compound 14, (S)-2-chloro-6-fluoro-N-(3-methyl-1-(m-tolylsulfonyl)-2,3-dihydro-1H-pyrido[2,3-b][1,4]oxazin-7-yl)benzamide], the EC50 at RORγ-LBD [1] is 0.022 µM; on RORγ-LBD [2], 0.166 µM.

For `CCc1cccc(S(=O)(=O)N2C[C@H](C)Oc3ncc(NC(=O)c4c(F)cccc4Cl)cc32)c1` [Compound 15, (S)-2-chloro-N-(1-((3-ethylphenyl)sulfonyl)-3-methyl-2,3-dihydro-1H-pyrido-[2,3-b][1,4]oxazin-7-yl)-6-fluorobenzamide], the figures for the EC50 on RORγ-LBD [1] and on RORγ-LBD [2] were 0.01 µM and 0.031 µM, respectively.

Take `CC(=O)NC[C@H]1CN(S(=O)(=O)c2cccc(C)c2)c2cc(NC(=O)c3c(F)cccc3Cl)cnc2O1` [Compound 16, (S)-N-(3-(acetamidomethyl)-1-(m-tolylsulfonyl)-2,3-dihydro-1H-pyrido[2,3-b][1,4]oxazin-7-yl)-2-chloro-6-fluorobenzamide]: the figures for the EC50 on RORγ-LBD [1] and at RORγ-LBD [2] were 0.123 µM and 0.336 µM, respectively.

In the case of `CC(=O)NC[C@H]1CN(S(=O)(=O)c2cccc(C)c2)c2cc(NC(=O)[C@@H](C)c3ccccc3)cnc2O1` [Compound 17, (S)-N-((S)-3-(Acetamidomethyl)-1-(m-tolylsulfonyl)-2,3-dihydro-1H-pyrido[2,3-b][1,4]oxazin-7-yl)-2-phenylpropanamide], the EC50 on RORγ-LBD [1] is 0.107 µM; at RORγ-LBD [2], 0.76 µM.

Take `CC1COc2ncc(NC(=O)c3c(Cl)cccc3C(F)(F)F)cc2N1S(=O)(=O)c1ccc(F)cc1` (centres unmarked) [Compound 19]: the response at RORγ-LBD [2] was half-maximal at 0.02 µM (EC50).

As for `CC1COc2ncc(NC(=O)c3c(F)cccc3Cl)cc2N1S(=O)(=O)c1cccc(C#N)c1` (centres unmarked) [Compound 20], the EC50 is 0.108 µM on RORγ-LBD [1] and 0.39 µM on RORγ-LBD [2].

With `N#Cc1cccc(S(=O)(=O)N2CCOc3ncc(NC(=O)c4c(F)cccc4Cl)cc32)c1` [Compound 21], at RORγ-LBD [2], the EC50 was found to be 0.2 µM.

`O=C(Nc1cnc2c(c1)N(S(=O)(=O)c1ccc(Cl)cc1)CCO2)c1c(F)cccc1Cl` [Compound 22] displayed an EC50 at RORγ-LBD [2] of 0.09 µM. Compared with the last compound, the EC50 is about 2.2-fold lower.

For the compound `O=C(Nc1cnc2c(c1)N(S(=O)(=O)c1ccc(F)c(F)c1)CCO2)c1c(F)cccc1Cl` [Compound 23], it took 0.1 µM to reach a half-maximal effect on RORγ-LBD [2] (EC50).

Consider `Cc1cccc(S(=O)(=O)N2C[C@H](C)Oc3ncc(NC(=O)c4c(F)cccc4C(F)(F)F)cc32)c1` [Compound 24], for which the EC50 on RORγ-LBD [1] turned out to be 0.006 µM; on RORγ-LBD [2], 0.132 µM.

Regarding `C[C@H]1CN(S(=O)(=O)c2cccc(C#N)c2)c2cc(NC(=O)c3c(F)cccc3Cl)cnc2O1` [Compound 25], the figures for the EC50 at RORγ-LBD [1] and on RORγ-LBD [2] were 0.07 µM and 1.03 µM, respectively.

Consider `C[C@H]1CN(S(=O)(=O)c2ccc(F)cc2)c2cc(NC(=O)c3c(F)cccc3Cl)cnc2O1` [Compound 26], for which the EC50 on RORγ-LBD [1] was 0.063 µM; on RORγ-LBD [2] it was 0.829 µM.

For the compound `C[C@H]1CN(S(=O)(=O)c2cccc(C3CC3)c2)c2cc(NC(=O)c3c(F)cccc3Cl)cnc2O1` [Compound 27], the EC50 at RORγ-LBD [1] is 0.011 µM; at RORγ-LBD [2], 0.02 µM.

Consider `Cc1cccc(S(=O)(=O)N2C[C@H](C)Oc3ncc(NC(=O)[C@@H](C)c4ccccc4)cc32)c1` [Compound 28], for which the EC50 is 0.073 µM at RORγ-LBD [1] and 0.81 µM at RORγ-LBD [2].

Consider `C[C@H](C(=O)Nc1cnc2c(c1)N(S(=O)(=O)c1ccc(F)cc1)C[C@H](C)O2)c1ccccc1` [Compound 29], for which the figures for the EC50 on RORγ-LBD [1] and at RORγ-LBD [2] were 0.387 µM and 3.05 µM, respectively.

In the case of `O=C(Nc1cnc2c(c1)N(S(=O)(=O)c1ccc(F)cc1)CCC2)c1c(F)cccc1F` [Compound 36, 2,6-difluoro-N-(5-(4-fluorobenzenesulfonyl)-5,6,7,8-tetrahydro-[1,5]naphthyridin-3-yl)benzamide], the EC50 at RORγ-LBD [1] is 0.202 µM; at RORγ-LBD [2], 0.7 µM.

Take `Cc1cccc(S(=O)(=O)N2CCCc3ncc(NC(=O)c4c(F)cccc4Cl)cc32)c1` [Compound 37, 2-chloro-6-fluoro-N-(5-(m-tolylsulfonyl)-5,6,7,8-tetrahydro-1,5-naphthyridin-3-yl)benzamide]: the EC50 amounted to 0.016 µM at RORγ-LBD [1] and 0.052 µM at RORγ-LBD [2].

With `Cc1cccc(S(=O)(=O)N2CCCc3ncc(NC(=O)[C@@H](C)c4ccccc4)cc32)c1` [Compound 38, (S)-2-phenyl-N-(5-(m-tolylsulfonyl)-5,6,7,8-tetrahydro-1,5-naphthyridin-3-yl)propanamide], the EC50 on RORγ-LBD [1] came out at 0.061 µM; on RORγ-LBD [2], 0.414 µM.

For orientation: EC50 means the concentration at which the effect is half-maximal. Lower therefore signals greater potency.
